For one experiment, the system named is HCT116 cells. The experiment can be described thus: Mitotic arrest assay on HCT116 cells (phospho-histone H3 Ser10). The class given is cell-based, human. As to conditions: lowest active dose; for minimal effective concentration: Homo sapiens, HCT-116, HCT116 cells, read-out: Mitotic arrest HCT116 LAD (converted). From the text: Phosphorylation of histone H3 is tightly correlated with chromosome condensation during both mitosis and meiosis. The assay is a cellular immunosorbent assay wherein the sole antibody is labelled with a detectable conjugate. The phospho-histone H3 (ser10) antibody detects endogenous levels of histone H3 only when phosphorylated at serine 10. […] In parallel with antibody detection, the nuclei of the cells are stained with Hoechst 33342 for cell-counting. Cells are detected and analysed using the InCell Analyzer 1000 from GE Healthcare. Since both the antibody-detection as well as the Hoechst-staining are in the nucleus, the dual area object intensity algorithm is used for analysing the wells.
All compounds tested were dissolved in DMSO and further dilutions were made in culture medium. Final DMSO concentrations never exceeded 0.1% (v/v).
HCT116 cells (supplier: ATCC) (human colon carcinoma cell line) were cultivated in Mc Coy's 5 A medium (supplier: Gibco) supplemented with 10% foetal calf serum (FCS), 2 mM L-glutamine and gentamycin at 37° C. in a humidified incubator with 5% CO2.
HCT116 cells were seeded at 20.000 cells per well in a 96 well plate (black/clear bottom, poly-D-lysine coated, supplier Greiner), cultured overnight to adhere to the bottom of the plate and treated with compound for 6 hours at 37° C. in a humidified incubator. After incubation, the medium was removed and cells were fixed using 100 μl/well formaldehyde (Accustain®, Formaline solution 10% neutral buffered, contains 4% formaldehyde w/v, supplier: Sigma) was added. After incubation for 15 minutes at room temperature, the formaldehyde was removed and cells were incubated with methanol (−20° C.) for 15 minutes at room temperature. After incubation, cells were washed once with phosphate-buffered saline (PBS —CaCl2, —MgCl2, suppier: Gibco)/0.05% Tween 20. The anti-phospho-histone H3 (Ser10) Alexa Fluor 488 antibody (supplier: Cell signalling) is used for detection of the cells inmitosis. The antibody was diluted 1/50 in 5% bovine serum albumins (BSA) and 50 μl/well was used for incubation overnight at room temperature in the dark.
A 1/2000 dilution of Hoechtst 33342 (10 mg/ml, supplier: Invitrogen) was made and 100 μl/well was added for at least 30 minutes before acquiring images. The absorbance at dual wavelengths of 360/480 nm was measured using the InCell Analyzer 1000 from GE Healthcare and the results were then analyzed.
For each experiment, controls (containing no drug) and a blank incubation (containing no cells or drugs) were run in parallel. Analysis was done in triplicate. Low cell count wells were invalidated. The blank value was subtracted from all control and sample values and divided by the standard deviation of the measurements. The compounds were considered active when the obtained value (sigma) was >5. Herein the effects of test compounds are expressed as the lowest dose giving a sigma value of >5 (LAD) (see table F-2).

Another experiment has as its system PC3 cells. As to the kind of experiment: EB1 Comet (microtubule disruption) assay. In kind it is cell-based, human. The conditions noted are these: Homo sapiens, PC-3, 1 h, 1 hour treatment, read-out: EB1 pLAC (converted). Put shortly:
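PC3 human prostate cancer cells exposed to compound for 1 h at 37 °C (0.6% DMSO final), methanol-fixed, immunostained for Eb1 and imaged at 20×. Value is the lowest active concentration (LAC): the concentration at which Eb1 foci are absent in at least 50% of treated cells.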

Experimental findings from patent US8778966B2, “Quinolinone derivatives as PARP and tank inhibitors” (Janssen Pharmaceutica, NV, priority 2007, dated 2014) are described below.

Molecules are shown by their SMILES.

With `CCc1cc2ccc(C(C)(C#N)Cc3cccc(Cl)c3)cc2[nH]c1=O` (centres unmarked) [Compound 140], the minimal effective concentration in the experiment on HCT116 cells was 0.316 µM; in the experiment with PC3 cells, 0.1 µM.

Turning to `CCc1cc2ccc(C(C)(C#N)Cc3cc(Cl)cc(Cl)c3)cc2[nH]c1=O` (centres unmarked) [Compound 141], the minimal effective concentration in the experiment with HCT116 cells and in the experiment with PC3 cells was 0.1 µM in each case.

On to `CCOc1ccccc1OCCC(C)(C#N)c1ccc2cc(CC)c(=O)[nH]c2c1` (centres unmarked) [Compound 142], for which the figures for the minimal effective concentration in the experiment on HCT116 cells and in the experiment with PC3 cells were 0.316 µM and 1 µM, respectively.

Consider `CCc1cc2ccc(C(C)(C#N)CCOc3cccc(C)c3)cc2[nH]c1=O` (centres unmarked) [Compound 143], for which the minimal effective concentration in the experiment with HCT116 cells was 0.316 µM; with PC3 cells it was 1 µM.

For the compound `CCc1cc2ccc(C(C)(C#N)CCOc3ccc(F)cc3)cc2[nH]c1=O` (centres unmarked) [Compound 144], the minimal effective concentration in the experiment on HCT116 cells and with PC3 cells was 0.316 µM in each case.

Take `CCc1cc2ccc(C(C)(C#N)CCOc3ccccc3)cc2[nH]c1=O` (centres unmarked) [Compound 145]: the values for the minimal effective concentration in the experiment with HCT116 cells and with PC3 cells were 0.316 µM and 1 µM, respectively.

As for `CCc1cc2ccc(C(C)(C#N)CCOc3ccc(OC)cc3)cc2[nH]c1=O` (centres unmarked) [Compound 147], the minimal effective concentration with HCT116 cells was 0.316 µM; in the experiment on PC3 cells it was 1 µM.

With `CCc1cc2ccc(C(C)(C#N)CCOc3ccccc3C)cc2[nH]c1=O` (centres unmarked) [Compound 148], the minimal effective concentration with HCT116 cells and with PC3 cells was 0.316 µM each time.

As to `CCc1cc2ccc(C(C)(C#N)CCOc3cccc(Cl)c3)cc2[nH]c1=O` (centres unmarked) [Compound 151], the minimal effective concentration in the experiment with HCT116 cells was 0.316 µM; with PC3 cells it was 1 µM.

For the compound `CCc1cc2ccc(C(C)(C#N)CCOc3ccc(Cl)cc3Cl)cc2[nH]c1=O` (centres unmarked) [Compound 154], the results for the minimal effective concentration with HCT116 cells and in the experiment with PC3 cells were 0.316 µM and 0.1 µM, respectively.

As for `CCc1cc2ccc(C(C)(C#N)CC3CN(C)c4ccccc4O3)cc2[nH]c1=O` (centres unmarked) [Compound 156], the minimal effective concentration in the experiment with HCT116 cells was 0.316 µM; with PC3 cells, 1 µM.

`CCc1cc2ccc(C(C)(C#N)CCOc3ccc4ccccc4c3)cc2[nH]c1=O` (centres unmarked) [Compound 157]: the minimal effective concentration in the experiment with HCT116 cells was 0.316 µM; in the experiment on PC3 cells it was 0.1 µM.

As for `CCc1cc2ccc(C(C)(C#N)CCOc3cccc4ccccc34)cc2[nH]c1=O` (centres unmarked) [Compound 158], the minimal effective concentration with HCT116 cells was 0.1 µM; with PC3 cells, 0.316 µM.

`CCc1cc2ccc(C(C)(C#N)CCOc3ccc(Br)cc3)cc2[nH]c1=O` (centres unmarked) [Compound 160]: the minimal effective concentration in the experiment with HCT116 cells and in the experiment with PC3 cells was 0.316 µM each time.

For `CCc1cc2ccc(C(C)(C#N)CCOc3ccc(C#N)cc3)cc2[nH]c1=O` (centres unmarked) [Compound 161], the minimal effective concentration in the experiment with HCT116 cells is 0.1 µM; with PC3 cells it was 0.316 µM.

The compound `CCc1cc2ccc(C(C)(C#N)Cc3cccc(CCC#N)c3)cc2[nH]c1=O` (centres unmarked) [Compound 165] returned a Mitotic arrest HCT116 LAD with HCT116 cells (HCT116 cells, the values are: pLAD (−log M lowest active dose)) of 6.5. For the same compound, the minimal effective concentration in the experiment with PC3 cells was 1 µM.
